Laboratory results from patent US20260294874A1, “COMPOSITIONS COMPRISING MODULATORS OF RIBONUCLEOPROTEIN GRANULE FORMATION AND DISSOLUTION AND METHODS OF USE THEREOF” (University of Virginia Patent Foundation, priority 2023, published 2026).

How the values were obtained:
HNRPK Y72 = target: T1, HNRPK Y72 (Homo sapiens, UniProt P61978); assay: Competitive ABPP SILAC LC-MS/MS chemical proteomics, HNRPK Y72; assay type: cell-based
T1 construct: liganded site Y72
Description: Preparation of SILAC proteomes for LC-MS/MS analysis. SILAC cell proteomes were fractionated to collect the supernatant and normalized to 2.3 mg/mL in PBS. ‘Heavy’ and ‘light’ proteomes were aliquoted (427 μL) and probe-modified proteins were conjugated to desthiobiotin-PEG-3-azide using copper-catalyze azide-alkyne cycloaddition, trypsinized into peptides using Trypsin/Lys-C Mix (Catalog No. V5071; Promega Corporation, Madison, Wisconsin, United States of America), enriched using PIERCE™ Avidin Agarose brand beads (Catalog No. 20219; Thermo Fisher Scientific Inc., Waltham, Massachusetts. United States of America), and prepared for nano-electrospray ionization-LC-MS/MS analysis as previously described in Hahm et al., 2020.
Data Analysis—Chemical Proteomics. Identification and analysis of peptides and proteins using LC-MS was accomplished using bioinformatics software and quality control parameter protocols as previously described in Hahm et al., 2020.
We performed quantitative liquid-chromatography tandem mass spectrometry (LC-MS/MS) chemical proteomic studies to identify the target protein and binding site(s) of SuTEx fragments with RNP granule modulating activity. […]
We detected ~8,700 probe-modified sites (Tyr and Lys) in our aggregate HeLa and HEK293T chemical proteomic analyses. […]

[1] = tested on: G3BP1 Y40F-expressing G3BP KO cells; assay: SG formation in G3BP KO U20S cells rescued with G3BP1 Y40F; assay type: cell-based; conditions: 25 μM, 2 h
Description: G3BP KO and rescue studies. U20S G3BP1/2 double knockout (G3BP KO) cell-line was a kind gift from the C. Brangwynne lab (Princeton University, Princeton, New Jersey, United States of America) and generated as previously described in Kedersha et al., 2016. G3BP KO cells were seeded at 9.0×10^4 in a 24-well plate with 12-mm glass coverslips. Next day, the cells were transfected with […] vectors with 1 μg/mL tetracycline and LIPOFECTAMINE™ 3000 brand transfection reagent according to the manufacturer's protocol (Thermo Fisher Scientific). 20 hours post-transfection, the cells were treated with 25 μM SuTEx probes for 2 hours in DMEM medium without FBS. The cells were then treated with 75 μM NaAsO2 for 30 minutes and fixed with 3% paraformaldehyde in PBS for 15 minutes at RT and washed with PBS twice. The same protocols for IF of HeLa cells and quantification of G3BP1-positive SGs described above were followed thereafter.
To determine whether the cell biological effects mediated by HHS-166 were Y40-dependent, we expressed recombinant G3BP1 WT or Y40 mutant in previously established G3BP1/2 double knockout U20S (G3BP KO) cells (Kedersha et al., 2016; Sanders et al., 2020) and evaluated the resulting effects on SG response to [COMPOUND LEFT OUT]. […]

SMILES: COc1ccc(S(=O)(=O)n2cc(C3CCCCC3)nn2)cc1 [HHS-166, 4-Cyclohexyl-1-((4-methoxyphenyl)sulfonyl)-111-1,2,3-triazole]
- liganding of HNRPK Y72 (in words) (HNRPK Y72): not
- effect on SG formation (in words) [1]: lost
